# Laboratory results reported in US11180504B2 (ORCHID PHARMA LTD., priority 2016, dated 2021).
# Where two headings read alike, the source gives them in different places.
# How the values were obtained:
# [1] = test system: carbapenemase producing K. pneumoniae; test: MIC by broth micro-dilution (CLSI), carbapenemase producing K. pneumoniae; format: cell-based, Klebsiella pneumoniae
# [2] = test system: carbapenem sensitive Pseudomonas aeruginosa; test: MIC by broth micro-dilution (CLSI), carbapenem sensitive P. aeruginosa; format: cell-based
# [3] = test system: carbapenem sensitive Escherichia coli; test: MIC by broth micro-dilution (CLSI), carbapenem sensitive E. coli; format: cell-based
# [4] = test system: methicillin-sensitive Staphylococcus aureus; test: MIC by broth micro-dilution (CLSI), methicillin-sensitive S. aureus; format: cell-based; details: MSSA S. aureus ATCC29213
# [5] = Klebsiella pneumoniae, ATCCBAA1705, KPC-2 K. pneumoniae ATCC BAA-1705, read-out: MIC
# [6] = Pseudomonas aeruginosa, ATCC27853, Meropenem susceptible P. aeruginosa ATCC27853, read-out: MIC
# [7] = Escherichia coli, ATCC25922, ESBL −ve E. coli ATCC25922, read-out: MIC
# [8] = Staphylococcus aureus, ATCC 29213 / MSSA, read-out: MIC
# [9] = KPC-2 K. pneumoniae ATCC BAA-1705
SMILES,"MIC [1, 5]","MIC [2, 6]","MIC [3, 7]","MIC [4, 8]","MIC [1, 9]",MIC ([2]; Meropenem susceptible P. aeruginosa ATCC27853),MIC ([3]; ESBL −ve E. coli ATCC25922),MIC [4]
"C[C@@H](NC(=O)Cn1cnnn1)[C@H]1C(=O)N2C(C(=O)O)=C(S[C@@H]3CN[C@H](C(=O)N4CC5[C@H](O)[C@H](N)C[C@@]5(CO)C4)C3)[C@H](C)[C@H]12 (stereo partly drawn) [Example 547, (4R,5S,6R)-6-((R)-1-(2-(1H-tetrazol-1-yl)acetamido)ethyl)-3-((3S,5S)-5-((3aS,5R,6S)-5-amino-6-hydroxy-3a-(hydroxymethyl)octahydro-cyclopenta[c]pyrrole-2-carbonyl)pyrrolidin-3-ylthio)-4-methyl-7-oxo-1-azabicyclo-[3.2.0]-hept-2-ene-2-carboxylic acid]",2 µg/mL,2 µg/mL,0.5 µg/mL,4 µg/mL,–,–,–,–
"C[C@@H](NC(=O)Cn1nnc(C(F)(F)F)n1)[C@H]1C(=O)N2C(C(=O)O)=C(S[C@@H]3CN[C@H](C(=O)N(C)C)C3)[C@H](C)[C@H]12 [Example 335, (4R,5S,4R)-3-((3S,5S)-5-(dimethylcarbamoyl)pyrrolidin-3-ylthio)-4-methyl-7-oxo-6-((R) - 1-(2-(5-(trifluoromethyl)-2H-tetrazol-2-yl)acetamido)ethyl) - 1-azabicyclo[3.2.0]hept-2-ene-2-carboxylic acid]",64 µg/mL,> 128 µg/mL,1 µg/mL,4 µg/mL,–,–,–,–
"C[C@@H](NC(=O)Cn1cnnn1)[C@H]1C(=O)N2C(C(=O)O)=C(S[C@@H]3CN[C@H](C(=O)N4CC5CCNC5C4)C3)[C@H](C)[C@H]12 (stereo partly drawn) [Example 505, (4R,5S,6R)-6-((R)-1-(2-(1H-tetrazol-1-yl)acetamido)ethyl)-4-methyl-3-((3S,5S)-5-(octahydropyrrolo[3,4-b]pyrrole-5-carbonyl)pyrrolidin-3-ylthio)-7-oxo-1-azabicyclo[3.2.0]hept-2-ene-2-carboxylic acid]",1 µg/mL,1 µg/mL,0.25 µg/mL,2 µg/mL,–,–,–,–
"C[C@@H](NC(=O)Cn1cnnn1)[C@H]1C(=O)N2C(C(=O)O)=C(S[C@@H]3CN[C@H](C(=O)N4CC5CCN(C(=N)N)C5C4)C3)[C@H](C)[C@H]12 (single isomer, unassigned) [Example 569]",1 µg/mL,2 µg/mL,0.25 µg/mL,2 µg/mL,–,–,–,–
"C[C@@H](NC(=O)C(F)F)[C@H]1C(=O)N2C(C(=O)O)=C(S[C@@H]3CN[C@H](C(=O)N4CCC5CNCCC54)C3)[C@H](C)[C@H]12 (stereo partly drawn) [Example 486, (4R,5S,6R)-6-((R)-1-(2,2-difluoroacetamido)ethyl)-4-methyl-3-((3S,5S)-5-(octahydro-1H-pyrrolo[3,2-c]pyridine-1-carbonyl)pyrrolidin-3-ylthio)-7-oxo-1-azabicyclo[3.2.0]hept-2-ene-2-carboxylic acid]",8 µg/mL,64 µg/mL,0.5 µg/mL,2 µg/mL,–,–,–,–
"C[C@@H](NC(=O)Cn1cnnn1)[C@H]1C(=O)N2C(C(=O)O)=C(S[C@@H]3CN[C@H](C(=O)N4CC5CCNC5C4)C3)[C@H](C)[C@H]12 (stereo partly drawn) [Example 506, (4R,5S,6R)-6-((R)-1-(2-(1H-tetrazol-1-yl)acetamido)ethyl)-4-methyl-3-((3S,5S)-5-(octahydropyrrolo[3,4-b]pyrrole-5-carbonyl)pyrrolidin-3-ylthio)-7-oxo-1-azabicyclo[3.2.0]hept-2-ene-2-carboxylic acid]",–,–,–,–,1 µg/mL,1 µg/mL,0.25 µg/mL,4 µg/mL
C[C@@H](NC(=O)Cn1cnnn1)[C@H]1C(=O)N2C(C(=O)O)=C(S[C@@H]3CN[C@H](C(=O)N4C[C@H](N)C[C@H]4CN)C3)[C@H](C)[C@H]12 [Example 444],2 µg/mL,2 µg/mL,0.5 µg/mL,2 µg/mL,–,–,–,–
"C[C@@H](NC(=O)Cn1nnnc1-c1cccs1)[C@H]1C(=O)N2C(C(=O)O)=C(S[C@@H]3CN[C@H](C(=O)N4CC[C@@H](N)C4)C3)[C@H](C)[C@H]12 [Example 358, (4R,5S,6R)-3-((3S,5S)-5-((R)-3-aminopyrrolidine-1-carbonyl)pyrrolidin-3-ylthio)-4-methyl-7-oxo-6-((R)-1-(2-(5-(thiophen-2-yl)-1H-tetrazol-1-yl)acetamido)ethyl)-1-azabicyclo[3.2.0]hept-2-ene-2-carboxylic acid]",32 µg/mL,> 128 µg/mL,1 µg/mL,1 µg/mL,–,–,–,–
"C[C@@H](NC(=O)Cn1cnnn1)[C@H]1C(=O)N2C(C(=O)O)=C(S[C@@H]3CN[C@H](C(=O)N4CC[C@@H](N)C4)C3)[C@H](C)[C@H]12 [Example 298, (4R,5S,6R)-6-((R)-1-(2-(1H-tetrazol-1-yl)acetamido)ethyl)-3-((3S,5S)-5-((R)-3-aminopyrrolidine-1-carbonyl)pyrrolidin-3-ylthio)-4-methyl-7-oxo-1-azabicyclo[3.2.0]hept-2-ene-2-carboxylic acid]",1 µg/mL,1 µg/mL,0.125 µg/mL,1 µg/mL,–,–,–,–
"C[C@@H](NC(=O)Cn1cnnn1)[C@H]1C(=O)N2C(C(=O)[O-])=C(SC3Cn4cnc[n+]4C3)[C@H](C)[C@H]12 (stereo partly drawn) [Example 306, (4R,5S,6R)-6-((R) - 1-(2-(1H-tetrazol-1-yl)acetamido)ethyl)-3-(6,7-dihydro-5H-pyrazolo[1,2-a][1,2,4]triazol-4-ium-6-ylthio)-4-methyl-7-oxo-1-azabicyclo[3.2.0]hept-2-ene-2-carboxylate]",1 µg/mL,4 µg/mL,0.25 µg/mL,2 µg/mL,–,–,–,–
"CO/N=C(\C(=O)N[C@H](C)[C@H]1C(=O)N2C(C(=O)O)=C(S[C@@H]3CN[C@H](C(=O)N(C)C)C3)[C@H](C)[C@H]12)c1csc(N)n1 [Example 325, (4R,5S,6R)-6-((R) - 1-((Z)-2-(2-aminothiazol-4-yl)-2-(methoxyimino)acetamido)ethyl)-3-((3S,5S)-5-(dimethylcarbamoyl)pyrrolidin-3-ylthio)-4-methyl-7-oxo-1-azabicyclo[3.2.0]hept-2-ene-2-carboxylic acid]",64 µg/mL,> 128 µg/mL,4 µg/mL,8 µg/mL,–,–,–,–
"C[C@@H](NC(=O)Cn1cncn1)[C@H]1C(=O)N2C(C(=O)O)=C(S[C@@H]3CN[C@H](C(=O)N(C)C)C3)[C@H](C)[C@H]12 [Example 300, (4R,5S,6R)-6-((R) - 1-(2-(1H-1,2,4-triazol-1-yl)acetamido)ethyl)-3-((3S,5S)-5-(dimethylcarbamoyl)pyrrolidin-3-ylthio)-4-methyl-7-oxo-1-azabicyclo[3.2.0]hept-2-ene-2-carboxylic acid]",4 µg/mL,128 µg/mL,1 µg/mL,16 µg/mL,–,–,–,–
"C[C@@H](NC(=O)Cn1cnnn1)[C@H]1C(=O)N2C(C(=O)O)=C(S[C@@H]3CN[C@H](C(=O)N4CCC5(CNC5)C4)C3)[C@H](C)[C@H]12 [Example 502, (4R,5S,6R)-6-((R)-1-(2-(1H-tetrazol-1-yl)acetamido)ethyl)-3-((3S,5S)-5-(2,6-diazaspiro[3.4]octane-6-carbonyl)pyrrolidin-3-ylthio)-4-methyl-7-oxo-1-azabicyclo[3.2.0]hept-2-ene-2-carboxylic acid]",1 µg/mL,2 µg/mL,0.25 µg/mL,4 µg/mL,–,–,–,–
"C[C@@H](NC(=O)Cn1nnnc1C(C)(C)C)[C@H]1C(=O)N2C(C(=O)O)=C(S[C@@H]3CN[C@H](C(=O)N(C)C)C3)[C@H](C)[C@H]12 [Example 356, (4R,5S,6R)-6-((R)-1-(2-(5-tert-butyl-1H-tetrazol-1-yl)acetamido)ethyl)-3-((3S,5S)-5-(dimethylcarbamoyl)pyrrolidin-3-ylthio)-4-methyl-7-oxo-1-azabicyclo[3.2.0]hept-2-ene-2-carboxylic acid]",16 µg/mL,> 128 µg/mL,1 µg/mL,4 µg/mL,–,–,–,–
"C[C@@H](NC(=O)Cn1cnnn1)[C@H]1C(=O)N2C(C(=O)O)=C(S[C@@H]3CN[C@H](C(=O)N4CCC5(CC4)CC(F)(F)CN5)C3)[C@H](C)[C@H]12 [Example 351, (4R,5S,6R)-6-((R)-1-(2-(1H-tetrazol-1-yl)acetamido)ethyl)-3-((3S,5S)-5-(3,3-difluoro-1,8-diazaspiro[4.5]decane-8-carbonyl)pyrrolidin-3-ylthio)-4-methyl-7-oxo-1-azabicyclo[3.2.0]hept-2-ene-2-carboxylic acid]",4 µg/mL,> 128 µg/mL,1 µg/mL,16 µg/mL,–,–,–,–
"C[C@@H](NC(=O)Cn1cnnn1)[C@H]1C(=O)N2C(C(=O)O)=C(S[C@@H]3CN[C@H](C(=O)N4CC5CC(CO)NC5C4)C3)[C@H](C)[C@H]12 (single isomer, unassigned) [Example 552]",–,–,–,–,2 µg/mL,–,0.25 µg/mL,4 µg/mL
"C[C@@H](NS(C)(=O)=O)[C@H]1C(=O)N2C(C(=O)O)=C(S[C@@H]3CN[C@H](C(=O)N(C)C)C3)[C@H](C)[C@H]12 [Example 1, (4R,5S,6S)-3-((3S,5S)-5-(Dimethylcarbamoyl)pyrrolidin-3-ylthio)-4-methyl-6-((R)-1-(methylsulfonamido)ethyl)-7-oxo-1-azabicyclo[3.2.0]hept-2-ene-2-carboxylic acid]",–,32 to 64 µg/mL,0.25 to 1 µg/mL,8 to 16 µg/mL,–,–,–,–
"C[C@@H](NC(=O)Cn1cnnn1)[C@H]1C(=O)N2C(C(=O)O)=C(S[C@@H]3CN[C@H](C(=O)N4CCOC(CN)C4)C3)[C@H](C)[C@H]12 (stereo in doubt) [Example 461, (4R,5S,6R)-6-((R)-1-(2-(1H-tetrazol-1-yl)acetamido)ethyl)-3-((3S,5S)-5-((S)-2-(aminomethyl)morpholine-4-carbonyl)pyrrolidin-3-ylthio)-4-methyl-7-oxo-1-azabicyclo[3.2.0]hept-2-ene-2-carboxylic acid]",–,–,–,–,2 µg/mL,–,0.5 µg/mL,4 µg/mL
